According to US20070203215A1, “Methods & Compositions For Enhancing Pharmaceutical Treatments” (Taiji Biomedical, Inc., priority 1999, published 2007):
Like-named read-outs stand apart in the source and are kept apart here.

Experiments:
[1] = tested on: MDA/LCC6 human breast carcinoma xenografts; experiment: In vivo antitumor efficacy, non-P-gp-expressing MDA/LCC6 xenografts; design: species or system SCID mice; conditions: non-P-gp expressing tumor cells, FIG. 2
Experimental: (§1) Anti-tumor efficacy experiments with orthotopic MDA/LCC6 and MDA/LCC6^MDR1 tumors were conducted in female SCID/RAG2 mice. Ascites propagated cells (2×10^6 in 50 μl) were injected into mammary fat pads bilaterally on day 0 before randomization into groups of 5 mice per group. Paclitaxel (12 mg/kg/dose) was administered QD i.v. (tail vein) in 200 μl saline/Cremophor/ethanol (8/1/1 by volume) on days 5, 12, 19, and 26. The compound of Formula 2-free base (30 mg/kg/dose) was administered BID p.o. by gavage in 100 μl PEG 400/Tween 20 (9/1 by volume) on days 4-6, 11-13, 18-20, and 25-27. Mean body weights were recorded at least every other day. Tumor weight was monitored approximately every other day by caliper measurements and calculated according to the formula (Tumor weight =(length×width^2)÷2). This conversion formula was verified by comparing the calculation derived tumor weights to excised and weighed tumors. Animals bearing ulcerated tumors or where tumor weight exceeded 10% of the animal's body weight were terminated. The weights of the bilateral tumors were averaged for each mouse and mean tumor weights for each treatment group±standard error of the mean were calculated. Statistical analysis was carried out by Mann-Whitney test using GraphPad Prism software (San Diego, Calif.).

MCF-7/ADR = experiment: Cell proliferation assay; format: cell-based; conditions: Homo sapiens, NCI/ADR-RES; Breast carcinoma MCF-7/ADR, P-gp Pos; read-out: Formula 2 compound IC50 (inhibition of growth)
Experimental: (§2) Cell proliferation IC50s and MDR reversal EC50s were determined from 3-day dose-response curves carried out in triplicate in 96-well plates essentially as described by Monks et al. (J. Natl. Cancer Inst., 83:757-66, 1991). Cells were plated in standard growth medium at 2.5 or 5.0×10^4 per well (CCRF-CEM and CEM/VLB1000 respectively) or 5×10^3 per well (all other cell lines) in a final volume of 100 μl. After a 2 h incubation for non-adherent cells and overnight incubation for adherent cells, the initial cell density was determined by fluorescence readout of Alamar Blue metabolism. The compound of Formula 2, cytotoxic agents, or compound vehicles were added to duplicate plates and the incubation was continued for an additional 72 h. Final cell density was determined with Alamar Blue. In some experiments, a standard endpoint assay was used without analysis of initial cell density with Alamar Blue. Similar results were obtained with the two assays. EC50s were derived by nonlinear regression analysis assuming a sigmoidal dose-response using GraphPad Prism Software (San Diego, Calif.). Proliferation assays capable of measuring both cytostatic and cytotoxic responses were carried out as described herein with 15 non-transformed and transformed cell lines, including primary fibroblasts, non-transformed smooth muscle, leukemia, breast, colon, ovarian and uterine carcinoma cells (±P-gp expression). Although the compound of Formula 2 reversed P-gp-mediated MDR in the low nanomolar concentration range, the compound was non-cytotoxic by itself at doses up to 100 μM in all cell lines. […] IC50s for non-specific cytotoxicity were similar in matched cell lines plus and minus P-gp expression. […] If it were, some consistent degree of resistance would be expected in P-gp expressing cells.

human CYP3A4 = human CYP3A4 (Homo sapiens, UniProt P08684); experiment: Inhibition of CYP3A4-mediated paclitaxel metabolism; format: in vitro ADME
Description: (§3) Two enzymes primarily responsible for metabolism of paclitaxel are P450 CYP3A4 and CYP2C8. Some P-gp inhibitors are also metabolized by P450 CYP 3A4, leading to inhibition of paclitaxel metabolism. This may contribute to PK interactions with paclitaxel.

[2] = mouse, in vivo
Experimental: Non-tumor bearing athymic mice were treated with the compound of Formula 2 and (or) paclitaxel as described.

[3] = PK interaction study, i.v. plasma paclitaxel levels; format: in vivo, SCID/RAG2 mice; conditions: three oral doses of 30 mg/kg before i.v. 16 mg/kg paclitaxel, FIG. 5
Experimental: At the indicated times after paclitaxel administration, 3 mice per time point were anesthetized with CO2 and blood was removed by cardiac puncture into Microtainer tubes containing EDTA. Plasma samples generated by centrifugation were extracted with acetonitrile and the analysis for paclitaxel content was carried out by HPLC using a Waters 600E multisolvent delivery system, 717 plus autosampler and 996 photodiode array detector. Baccatin III (0.8 nmoles/200 μl plasma) was used as the internal standard (IS) and added to plasma samples during extraction with acetonitrile. Standard curve samples as well as quality control samples were also prepared from spiked control plasma in order to verify the accuracy of the HPLC analysis. […] Waters, Milford, Mass.) with double distilled water (A), and acetonitrile (B), using the following gradient profile: t=0 min, 10% B; t=5 min, 10% B; t=30 min, 65% B; t=40 min, 65% B; t=45 min, 10% B; t=50 min, 10% B. The gradient was formed using a high pressure mixer and the flow rate was 1.0 ml min^−1. A Waters 996 Photo Diode Array Detector was used to scan at multiple wavelengths and chromatograms were processed for traces obtained at 230 nm.

CYP2C8 = CYP2C8 (Homo sapiens, UniProt P10632); experiment: Metabolism by P450 CYP2C8; format: in vitro ADME
Description: as §3

[4] = tested on: 15 non-transformed and transformed cell lines; experiment: Proliferation assays, 15 non-transformed and transformed cell lines (panel statements); format: cell-based, human; conditions: for IC50: Homo sapiens, 15 cell lines
Experimental: as §2

[5] = Saquinavir in rat cerebrospinal fluid and brain after oral ONT-093 or vehicle; format: in vivo, Sprague Dawley rats; conditions: Group 3: after OC-144-093 20 mg/kg p.o.; 30 min after saquinavir dose; individual animals 3001-3004; 20 mg/kg
Experimental: Blood samples (ca 0.3 mL) were collected from 8 selected rats by jugular venipuncture during slight anesthesia pre-dose and at 0.25, 0.5, 1, 2, 4 and 8 post-dose (saquinavir dose). Cerebrospinal fluid (CSF) and brain tissue were collected terminally from the remaining 8 rats at ca 30 min following administration of the dose of saquinavir. Blood samples were collected into tubes containing EDTA and placed on wet ice pending centrifugation. Plasma, CSF and brain tissue samples were stored at ca −80° C. until analysis of saquinavir by LC/MS. The vehicle used was polyethylene glycol (PEG-400)1 Tween 20 (9:1; v:v).
A total of 16 male Sprague Dawley rats were received from Charles River Canada (Saint-Constant, Quebec). Animals were approximately 9 weeks of age at arrival and weighed ca 312-340 g. Four males were randomly assigned to each of Groups 1, 2, 3 and 4. On the day of dosing and following an overnight fast, animals were weighed (ca 305-323 g) and were administered their respective combination of doses. Animals of Groups 1 and 3 received a single oral dose of ONT-093 (20 mg/kg) by gavage at a dose volume of 2 mL/kg. Animals of Groups 2 and 4 received a single oral dose of the vehicle by gavage at a dose volume of 2 mL/kg. Approximately 30 min following administration of either ONT-093 or the vehicle, all animals received a single oral dose of saquinavir (20 mg/kg) by gavage at a dose volume of 1 mL/kg.
Following administration of saquinavir, blood samples (ca 0.3 mL in EDTA) were obtained from all rats of Groups 1 and 2 by jugular venipuncture during anesthesia with isoflurane (Ohmeda Pharmaceutical Products) at each of the following time-points: pre-dose (prior to administration of ONT-093 or vehicle) and 0.25, 0.5, 1, 2, 4 and 8 hr post-dose. Following administration of saquinavir, CSF was obtained from all animals of Groups 3 and 4 at 30 min following dose administration. CSF was collected (in tubes containing no anticoagulant) from the cistema magna during anesthesia with isoflurane. Following CSF collection, the animals were sacrificed by exsanguination via puncture of the vena cava and the brain was harvested from all these rats. Immediately following collection, all samples (blood, CSF and brain) were placed on ice until further processing or storage. Blood samples were centrifuged (ca 3080 g at ca 4° C. for 10 min) and the resulting plasma samples were stored at ca −80° C. pending analysis. CSF samples and brains were stored at ca −80° C. pending analysis.
Plasma samples, CSF samples and brains were analyzed for unchanged saquinavir using an LC/MS assay. Pharmacokinetic analysis was performed on plasma concentrations using the PhAST Software Program, Version 2.2-00 (Phoenix International Life Sciences Inc.). The highest observable concentration was assumed to be the peak concentration (Cmax); Time to Cmax was denoted Tmax. The area under the plasma concentration versus time-curve from time zero to the last measurable concentration [AUC(tf] was calculated by the linear trapezoidal method. Where applicable, numerical values were subjected to calculation of group means and % CV. Student-T-test with Satterthwaite approximation was performed on AUC and Cmax values to compare ONT-093 treated animals versus vehicle treated animals using SAS software program, Version 6.12 (SAS Institute Inc., Gary, N.C.). Where values were below limit of quantification, zero was used for pharmacokinetic analysis. The bioavailability (F) of saquinavir when administered with ONT-093 was calculated relative to the AUC values obtained from the animals receiving saquinavir following administration of the vehicle.

MDA/LCC6^MDR1 tumors = experiment: In vivo antitumor efficacy, orthotopic MDA/LCC6^MDR1 tumors; design: species or system SCID/RAG2 mice
Experimental: as §1
The compound of Formula 2 was administered the afternoon before, 2 hours before and 6 hours after each paclitaxel dose. The ability of orally administered Formula 2 compound to reverse MDR in solid tumors in vivo was assessed with the MDA/LCC6^MDR1 model. Because the compound of Formula 2 produced no effect on paditaxel blood levels, focus on up-front therapy (for naive animals) or minimal residual disease models was maintained, as opposed to established tumors. MDA/LCC6^MDR1 cells that express P-gp were resistant to paclitaxel treatment in vitro and this resistance was reversed by the compound of Formula 2 (FIG. 1). […] Similar results were obtained in three independent experiments with two different strains of immunocompromised mice (SCID/RAG-2 and athymic). […]

P450 CYP3A4 = P450 CYP3A4 (Homo sapiens, UniProt P08684); experiment: Metabolism by P450 CYP3A4; format: in vitro ADME
Description: as §3

Sequence of human CYP3A4 (P08684 whole entry): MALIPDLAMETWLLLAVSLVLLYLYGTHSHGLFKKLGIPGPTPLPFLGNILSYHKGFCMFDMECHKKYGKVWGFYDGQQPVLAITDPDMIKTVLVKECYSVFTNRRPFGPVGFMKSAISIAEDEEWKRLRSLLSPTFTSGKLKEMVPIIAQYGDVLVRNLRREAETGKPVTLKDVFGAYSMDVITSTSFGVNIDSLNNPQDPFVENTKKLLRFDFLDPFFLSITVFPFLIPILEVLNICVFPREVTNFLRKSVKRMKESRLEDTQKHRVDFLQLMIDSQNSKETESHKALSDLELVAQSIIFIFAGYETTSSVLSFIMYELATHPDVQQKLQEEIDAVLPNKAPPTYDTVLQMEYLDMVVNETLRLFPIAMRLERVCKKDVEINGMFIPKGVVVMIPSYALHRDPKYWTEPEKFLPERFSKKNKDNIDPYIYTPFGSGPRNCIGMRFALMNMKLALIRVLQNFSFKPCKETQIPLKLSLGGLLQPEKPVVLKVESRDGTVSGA
Sequence of P450 CYP3A4 (P08684 whole entry): as above
Sequence of CYP2C8 (P10632 whole entry): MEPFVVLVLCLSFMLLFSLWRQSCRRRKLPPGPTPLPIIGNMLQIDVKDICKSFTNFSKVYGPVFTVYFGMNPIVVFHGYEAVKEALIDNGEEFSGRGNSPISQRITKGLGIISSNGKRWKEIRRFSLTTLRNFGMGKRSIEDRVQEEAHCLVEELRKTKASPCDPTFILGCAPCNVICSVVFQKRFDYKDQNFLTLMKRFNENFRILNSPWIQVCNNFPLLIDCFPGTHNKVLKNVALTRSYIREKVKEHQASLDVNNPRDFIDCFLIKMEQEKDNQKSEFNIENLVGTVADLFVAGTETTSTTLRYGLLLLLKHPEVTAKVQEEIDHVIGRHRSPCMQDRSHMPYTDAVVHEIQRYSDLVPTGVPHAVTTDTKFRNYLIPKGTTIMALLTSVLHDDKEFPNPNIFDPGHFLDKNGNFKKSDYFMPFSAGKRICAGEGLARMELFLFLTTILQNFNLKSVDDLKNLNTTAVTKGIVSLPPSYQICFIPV

CCOC/C=C/c1ccc(-c2nc(-c3ccc(NC(C)C)cc3)c(-c3ccc(NC(C)C)cc3)[nH]2)cc1 [Formula 2 compound]
In vivo anti-tumor activity of paclitaxel [1]: did enhance | IC50 (MCF-7/ADR): 68 µM | Ki (human CYP3A4): 39.8 ± 5.1 µM | Ki (CYP3A4) relative to EC50s for reversal of MDR (human CYP3A4; higher): approximately 1000 fold | Effect on paclitaxel toxicity [2]: decreased paclitaxel toxicity | Effect on i.v. plasma paclitaxel levels [3]: no effect | Metabolism by P450 CYP2C8 (CYP2C8): not metabolized | IC50 ([4]; read-out: Cytostatic IC50, average value): 60 µM | IC50 ([4]; read-out: Cytostatic IC50s, range over cell lines): 6 to 170 µM | Cytotoxicity by itself ([4]; at doses up to 100 μM, all cell lines): non-cytotoxic | Saquinavir Concentration in CSF [5]: BLQ | In vivo tumor growth (MDA/LCC6^MDR1 tumors; Formula 2 compound and paclitaxel combined, persisted at least two weeks after last paclitaxel dose): statistically significant inhibition of tumor growth | In vivo tumor growth compared to the vehicle control (MDA/LCC6^MDR1 tumors; single agent alone, paclitaxel 12 mg/kg i.v., Formula 2 free base 30 mg/kg p.o.): no significant effect | Metabolism by P450 CYP3A4 (P450 CYP3A4): not metabolized
